Tests used:
2b5^ho mice [1] = test: Nestin cell count in corpus callosum after Guanabenz treatment of VWM mice; type: in vivo, mouse; details: Guanabenz i.p. weekly from 2 to 10 months of age, analysed at 11 months, vs saline, p=0.289, not significant
Procedure: (§3) Tissue sections of 11 WT and 10 2b5^ho (carrying a homozygous Arg191His mutation in the Eif2b5 gene [7]) animals of 2, 5 or 7 months of age were collected after intracardiac perfusion with 4% paraformaldehyde (PFA). The brains were postfixed in 4% PFA for 1-2 days, after which half of the brain was embedded in paraffin and the other half was incubated overnight in 30% sucrose and snapfrozen in optimum cutting temperature compound (Sakura). […] To test the effect of Guanabenz, 11 female 2b5^ho littermates were injected with saline (n=5) or Guanabenz (10 mg/kg; n=6) i.p. every week from 2 months until 10 months of age. Animals were randomly assigned to the Guanabenz or saline group, and single animals were taken as experimental units. At 11 months of age all mice were sacrificed and the brains were used for analysis. The brains of 3 saline- and 4 Guanabenz-injected animals were perfused as described and used for immunostaining and in situ hybridization. […]
(§4) Mouse tissue was processed for immunostaining as previously described [7]. […] Stainings were analyzed with a LeicaDM6000B microscope (Leica Microsystems). […]
Astrocytes double-positive for nestin and GFAP were counted in the splenium and rostrum of the corpus callosum, on 100× magnification pictures. Total cell number was determined by counting the DAPI-positive nuclei. For each animal, at least 3 slices were stained and counted. […]

2b5^ho mice [2] = test: Analysis of Bergmann glia translocation (S100ß/GFAP staining) after Guanabenz treatment; type: in vivo, mouse
Procedure: Tissue sections of 11 WT and 10 2b5^ho (carrying a homozygous Arg191His mutation in the Eif2b5 gene [7]) animals of 2, 5 or 7 months of age were collected after intracardiac perfusion with 4% paraformaldehyde (PFA). The brains were postfixed in 4% PFA for 1-2 days, after which half of the brain was embedded in paraffin and the other half was incubated overnight in 30% sucrose and snapfrozen in optimum cutting temperature compound (Sakura). […] To test the effect of Guanabenz, 11 female 2b5^ho littermates were injected with saline (n=5) or Guanabenz (10 mg/kg; n=6) i.p. every week from 2 months until 10 months of age. Animals were randomly assigned to the Guanabenz or saline group, and single animals were taken as experimental units. At 11 months of age all mice were sacrificed and the brains were used for analysis. […]
as §4
Bergmann glia pathology was analyzed in S100ß-stained sections. […] All the S100-positive cell bodies inside this band were counted and considered correctly localized. The S100ß-positive cell bodies located outside the band in the molecular layer were counted and considered as translocated Bergmann glia. The amount of translocated cell bodies was expressed as a ratio to the total number of S100ß-positive cell bodies counted.

2b5^ho mice [3] = test: In situ hybridization for Plp-expressing cells after Guanabenz treatment; type: in vivo, mouse; details: Guanabenz i.p. weekly 2-10 months, forebrain (corpus callosum) and cerebellum, vs saline
Procedure: as §3
In situ hybridization targeting proteolipid protein (Plp) mRNA was performed on PFA-fixed snapfrozen tissue as previously described [7, 25]. […] The number of Plp-positive cells was analyzed in the rostrum and splenium of the corpus callosum, and in the white matter of the cerebellum. For each area 3 different pictures were taken with a 100× objective lens and cells were counted in a 100×200 μm square.

2b5^ho mice [4] = test: Western blot for myelin proteins MBP and MOG after Guanabenz treatment; type: in vivo, mouse; details: Guanabenz vs saline, n=2
Procedure: To test the effect of Guanabenz, 11 female 2b5^ho littermates were injected with saline (n=5) or Guanabenz (10 mg/kg; n=6) i.p. every week from 2 months until 10 months of age. Animals were randomly assigned to the Guanabenz or saline group, and single animals were taken as experimental units. At 11 months of age all mice were sacrificed and the brains were used for analysis. The brains of 3 saline- and 4 Guanabenz-injected animals were perfused as described and used for immunostaining and in situ hybridization. The brains of 2 saline- and 2 Guanabenz-injected animals were snapfrozen in liquid nitrogen and used for western blot analysis. No animals were excluded from any analysis.
Half of the forebrain and the whole cerebellum of 2 saline- and 2 Guanabenz-treated animals were separately used for western blot analysis. Forebrains were lysed in lysis buffer (50 mM Hepes, 150 mM NaCl, 1 mM EDTA, 2.5 mM ethylene glycol-bis(β-aminoethyl-ether)-N,N,N′,N′-tetraacetic acid, 0.1% Triton-X100, 10% glycerol, 1 mM dithiothreitol) supplemented with protease inhibitor cocktail (ThermoFisher Scientific) using a dounce tissue grinder (Sigma-Aldrich). […] Supernatants were collected and protein concentrations were measured with a Bradford assay. […] Secondary antibodies were raised against mouse or rabbit and conjugated with horseradish peroxidase. Blots were developed with SuperSignal™ West Femto Maximum Sensitivity Substrate (ThermoFisher Scientific) and measured in an Odyssey® Fc Imaging System (LI-COR Inc). Intensity of bands was quantified with ImageJ software and corrected for total amount of protein.

ATF4 expression = test: Stress-sensitive ATF4 luciferase reporter transfection assay (pNL1.1-mATF4) in U373 cells; type: cell-based, human; details: 15 μM compound added with 3 nM thapsigargin for 16 hours
Procedure: FIG. 9. […] ATF4 expression was assessed with a luciferase reporter construct under regulation of the murine Atf4 promoter and 5′ non-coding region. Cells were transfected as described. The ISR was induced by administration of 3 nM thapsigargin (TG) to the cell culture medium. […] Guanfacin (Gf), an a2 adrenergic receptor agonist without reported GADD34 modulating activity, was included in parallel as negative control. […] Statistical analyses were performed for individual compounds with a paired t-test (*, p<0.05, **, p<0.01).
The a2 adrenergic receptor agonist Guanabenz (Gb) has been reported to also target GADD34 and thereby impact on a negative feedback loop of the ISR [16]. GADD34 promotes dephosphorylation of eIF2P. Gb is thought to inhibit GADD34, it is thereby though to increase and prolong eIF2a phosphorylation and consequently increases production of ATF4 and its regulated transcriptome. We tested the effect of Gb on ATF4 production in U373 cell lines using a stress-sensitive transfection assay. Transfections were performed with the pNL1.1-mATF4 reporter construct, in which expression of the reporter gene is controlled by ISR-responsive sequences. Expression from the reporter construct was measured 2 days after transfection with a commercially available chemiluminescent assay and can be directly interpreted as a measure for ATF4 expression.
ATF4 expression was investigated in the absence or presence of ISR activation. […] Gb was added together with thapsigargin to the culture medium to test the effect of Gb on ATF4 expression. […] The eIF2B-enhancing compound ISRIB was included as positive control for ATF4-regulation.

eIF2a phosphorylation = eIF2a phosphorylation in brain tissue (Western blot) after one Gb injection; type: in vivo, mouse; details: wt and 2b5ho mice, one dose 10 mg/kg i.p., vs saline
Procedure: (§1) FIG. 10. […] Statistical analysis was performed with two-way ANOVA (*, p<0.05, **, p<0.01, ***, p<0.001).
(§2) As (unpublished) part of this study, we investigated the effect of Gb on the expression of ATF4 and its regulated transcriptome in mice. […] In short, we injected one dose of 10 mg/kg Gb intraperitoneally into four wildtype (wt) and four 2b5ho mice. Saline-injected wt and 2b5ho mice were used as negative controls for measuring Gb effects on ISR markers. […] Organs were removed, snap frozen in liquid nitrogen and stored at −80° C. Tissue samples for RNA and protein analyses were prepared as described. In postmortem brain tissue we measured levels of phosphorylated eIF2a with Western blot and levels of mRNAs encoding ATF4 and ATF4-regulated targets CHOP and TRIB3 with qPCR.

[5] = tested on: mRNAs encoding ATF4 and ATF4-regulated targets CHOP and TRIB3; test: ISR marker mRNA levels in brain tissue (qPCR) after one Gb injection; type: in vivo, mouse; details: one dose 10 mg/kg i.p., vs saline
Procedure: as §1, §2

[6] = in vivo; cited from earlier work

Row | Structure (SMILES) | average decrease of number of nestin-positive cells in the corpus callosum (2b5^ho mice [1]) [%] | GFAP expression and Bergmann glia morphology (2b5^ho mice [2]; Guanabenz i.p. weekly 2-10 months, cerebellum) | decrease of number of translocated Bergmann glia cell bodies (2b5^ho mice [2]; Guanabenz i.p. weekly from 2 to 10 months of age, analysed at 11 months, vs saline, p=0.032, reached numbers of untreated WT) [%] | number of Plp-expressing cells (2b5^ho mice [3]) | amount of MBP protein, cerebellum (2b5^ho mice [4]) | amount of MOG protein, cerebellum (2b5^ho mice [4]) | amount of MOG protein, forebrain (2b5^ho mice [4]) | ATF4 expression under stress (ATF4 expression) | levels of eIF2a phosphorylation in brain tissue, 4 hours after injection (eIF2a phosphorylation) | levels of eIF2a phosphorylation in brain tissue, 24 hours after injection (eIF2a phosphorylation) | Atf4 mRNA levels in brain tissue, 2b5ho mice ([5]; 4 and 24 hours) | Ddit3 mRNA expression in brain tissue, 2b5ho mice ([5]; 4 and 24 hours) | Trib3 mRNA expression in brain tissue, 2b5ho mice ([5]; 4 and 24 hours, not significant at 4 hours) | Atf4 mRNA expression level in brain tissue, wt mice ([5]; n=2) | half-life in blood/tissue [6]
1 | NC(N)=N/N=C/c1c(Cl)cccc1Cl [Guanabenz, guanabenz] | 27 | decreased GFAP expression and a normalization of Bergmann glia morphology | 30 | slightly increased in the forebrain and cerebellum, though not significantly | increased | increased | increased | increased | lower than in saline-injected animals | normalized | transient decrease | reduced at both time points | reduced at both time points | unaffected | approximately 6 hours
2 | N=C(N)NC(=O)Cc1c(Cl)cccc1Cl [Guanfacine, guanfacine] | – | – | – | – | – | – | – | small, variable and not statistically significant | – | – | – | – | – | – | –
3 | O=C(COc1ccc(Cl)cc1)NC1CCC(NC(=O)COc2ccc(Cl)cc2)CC1 (centres unmarked) [ISRIB] | – | – | – | – | – | – | – | reduced | – | – | – | – | – | – | –
